Measured values published in patent publication US11118109B2, “Organic luminogens” (THE HONG KONG UNIVERSITY OF SCIENCE AND TECHNOLOGY, priority 2017, dated 2021).

Key:
LogP (Table 1) = type: physicochemical
HeLa cells = test: Cell imaging of living HeLa cells by confocal microscopy, co-staining with MitoTracker Green FM and NucRed Live; type: cell-based; details: incubation 60 min at 37° C.
Experimental: For cell culturing, HeLa cells were cultured in MEM containing 10% FBS and antibiotics (100 units/mL penicillin and 100 µg/mL streptomycin) in a 5% CO2 humidity incubator at 37° C. All culture mediums supplemented with 10% heat-inactivated FBS, 100 units/mL penicillin and 100 µg/mL streptomycin. Before experiment, the cells were precultured until confluence was reached.
For cell imaging, HeLa cells were grown overnight on a 35 mm petri dish with a cover slip at 37° C. After the removal of the medium, the adherent cells were washed twice with 1× phosphate buffered saline (PBS) buffer. 4MOTPO were then added to the chamber. After incubation for 1 h, then washed and incubated with MitoTracker® Green FM and NucRed® Live for 10 min, followed by further washing three times with 1×PBS buffer. The cells were imaged on Zeiss laser scanning confocal microscope and analyzed using ZEN 2009 software.
4MOTPO was tested in living HeLa cells to test the efficacy of the compound as a biosensor for bioimaging. Cells were incubated with 4MOTPO for 60 min at 37° C. and then washed and incubated with MitoTracker® Green FM and NucRed® Live for 10 min, followed by further washing.

| logP (LogP (Table 1)) | SMILES | subcellular localisation versus MitoTracker Green FM and NucRed Live (HeLa cells; co-staining 10 min) | fluorescence observed in cells (intracellular distribution) (HeLa cells; confocal microscopy) |
| --- | --- | --- | --- |
| 1.02 | COc1ccc(-[n+]2c(-c3ccccc3)oc(-c3ccccc3)c2-c2ccccc2)cc1 [1MOTPO] |  |  |
| 1.29 | COc1ccc(-c2oc(-c3ccccc3)[n+](-c3ccc(OC)cc3)c2-c2ccc(OC)cc2)cc1 [3MOTPO] |  |  |
| 1.35 | COc1ccc(-c2oc(-c3ccc(OC)cc3)[n+](-c3ccc(OC)cc3)c2-c2ccc(OC)cc2)cc1 [4MOTPO] | can accumulate in mitochondria | intense blue fluorescence was observed in the cellular cytoplasms |
